Conditions: 99.6 kPa, Liquid; for viscosity: Capillary tube (Ostwald / Ubbelohde) method; for mass density: Vibrating tube method

CNC(C)=O [N-methylacetamide]
Conditions | mass density [kg/m3] | viscosity [mPa·s]
308.15 K | 946.01 | 3.57
313.15 K | 941.81 | 3.152
318.15 K | 937.59 | 2.8
323.15 K | 933.36 | 2.496
328.15 K | 929.17 | 2.245

Source: the NIST ThermoML archive (doi:10.1021/acs.jced.8b00399)
